In the experiment the target is solubilized human insulin receptor (Homo sapiens, UniProt P06213). As to the kind of experiment: Insulin receptor binding by competition with 125I-TyrA14 human insulin (scintillation counting). To be noted: antibody-captured solubilized receptor on Scintiplates.
Chain of solubilized human insulin receptor (P06213 28-758 limits assumed): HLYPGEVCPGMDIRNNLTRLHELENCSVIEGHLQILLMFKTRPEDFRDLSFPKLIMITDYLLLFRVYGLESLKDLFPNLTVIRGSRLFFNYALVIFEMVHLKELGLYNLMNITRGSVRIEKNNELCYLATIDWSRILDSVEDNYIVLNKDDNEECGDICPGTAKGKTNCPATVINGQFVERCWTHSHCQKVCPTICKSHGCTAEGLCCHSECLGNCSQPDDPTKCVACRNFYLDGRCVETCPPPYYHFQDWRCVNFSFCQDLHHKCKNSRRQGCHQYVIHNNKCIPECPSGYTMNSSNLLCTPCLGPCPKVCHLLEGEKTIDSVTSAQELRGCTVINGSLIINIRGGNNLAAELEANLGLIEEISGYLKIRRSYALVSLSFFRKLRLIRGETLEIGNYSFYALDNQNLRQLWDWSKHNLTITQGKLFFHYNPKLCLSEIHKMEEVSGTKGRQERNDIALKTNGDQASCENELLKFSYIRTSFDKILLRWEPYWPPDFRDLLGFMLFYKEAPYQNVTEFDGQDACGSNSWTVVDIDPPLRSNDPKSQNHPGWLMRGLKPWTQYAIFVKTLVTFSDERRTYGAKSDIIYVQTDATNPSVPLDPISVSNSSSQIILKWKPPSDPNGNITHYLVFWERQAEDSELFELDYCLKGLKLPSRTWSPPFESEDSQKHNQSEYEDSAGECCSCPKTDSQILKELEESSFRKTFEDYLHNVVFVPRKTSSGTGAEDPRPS
Chain of solubilized human insulin receptor (P06213 763-1382 partner limits assumed): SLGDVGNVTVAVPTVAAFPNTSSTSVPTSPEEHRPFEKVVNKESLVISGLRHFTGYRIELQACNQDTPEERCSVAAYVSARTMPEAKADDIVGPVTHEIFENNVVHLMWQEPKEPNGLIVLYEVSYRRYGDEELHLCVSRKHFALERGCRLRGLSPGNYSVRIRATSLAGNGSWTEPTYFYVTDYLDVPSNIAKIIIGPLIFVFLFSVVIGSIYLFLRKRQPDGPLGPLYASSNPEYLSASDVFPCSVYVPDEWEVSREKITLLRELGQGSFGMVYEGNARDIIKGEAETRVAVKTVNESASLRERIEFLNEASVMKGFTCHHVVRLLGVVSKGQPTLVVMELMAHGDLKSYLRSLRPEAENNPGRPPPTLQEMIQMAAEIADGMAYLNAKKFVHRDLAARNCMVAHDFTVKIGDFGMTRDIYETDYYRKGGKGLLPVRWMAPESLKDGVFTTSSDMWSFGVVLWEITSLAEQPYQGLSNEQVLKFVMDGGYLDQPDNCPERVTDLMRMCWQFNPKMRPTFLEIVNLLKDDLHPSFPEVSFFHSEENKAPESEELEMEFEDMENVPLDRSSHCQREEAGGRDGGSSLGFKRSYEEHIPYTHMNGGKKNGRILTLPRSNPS

The substance “Lys^B29(N^ε-(4-carboxyphenylalanine-N-methyl-glucamide), N^α-(4-borono-phenylsulfonyl)) des(B30), human insulin [Compound 23]” showed a dissociation constant Kd of 0.015 nM. This lies in the picomolar range. The result for “Lys^B29-(N^ε(γ-L-glutamyl-α-D-glucamide, N^α-(3-borono-5-nitro-benzoyl)) des(B30) human insulin [Compound 10]” reads 0.016 nM.

What is called Kd is the free concentration of one partner at which half of the binding sites on the other are occupied at equilibrium, for simple one-to-one binding. Low readings indicate tighter binding, high ones weaker binding.

Values taken from patent US7317000B2, “Glucose-dependent insulins” (Novo Nordisk A/S, priority 2001, dated 2008).
